Source: US20070207138A1, “S/O Type Pharmaceutical Preparation and Method for Producing the Same” (ASPION CO., LTD., priority 2004, published 2007)
Values joined by “and” are separate entries in the source; they are usually repeats but may differ in a detail not shown here. Equal values may be shown once. “Also recorded” adds a separate entry of the source.

Legend:
gastric mucosa = experiment: Gastric mucosa stimulus test
Procedure: (§1) Gastric mucosa stimulus test for the S/O type complex suspension obtained in Production example 1 was carried out. Specifically, according to the method disclosed by Tsurumi et al. (Folia Pharmacol. Japan, 69, pp.319-334 (1973)), five male Wistar rats having an average body weight of 140 g were fasted for 18 hours in advance, and were administered so that the dose amount of DFNa was 50 mg/kg body weight by means of an intrastomach catheter for rat. After 3.5 hours, the rats were sacrificed and dissected, and the condition of the gastric mucosa was observed. Also blood collected after 3.5 hours was centrifuged to obtain a plasma sample, and DFNa concentration in the plasma was determined by HPLC.

[1] = Plasma DFNa concentration in the gastric mucosa stimulus test; format: in vivo, male Wistar rats; conditions: DFNa 50 mg/kg body weight by intrastomach catheter, blood after 3.5 hours
Procedure: as §1

Blood concentration test = format: in vivo; conditions: beagle dog fasted overnight, oral, DFNa 6 mg/kg body weight

abnormality in gastric mucosa (gastric mucosa; rat, DFNa 50 mg/kg body weight): clear abnormality is observed | Plasma DFNa concentration, Average ([1]; group average, rat): 6.21 ± 2.03 | Plasma DFNa concentration ([1]; individual rat): 3.99 and 7.98 and 6.64 | Area under medicine concentration curve (Blood concentration test): 62.8 µg·h/mL | Maximum blood concentration (Blood concentration test): 26.4 µg/mL | Maximum blood concentration reach time (Blood concentration test): 1 h | half-life (Blood concentration test; serum): 58.8 min
SMILES: O=C(O)Cc1ccccc1Nc1c(Cl)cccc1Cl [DFNa solution, diclofenac sodium]
Condition of gastric mucosa (gastric mucosa; individual rat, DFNa 50 mg/kg body weight by intrastomach catheter, observed after 3.5 hours): Dotted bleeding; also recorded: Gastric ulcer
